The target in the assay is T1, AKR1C3 (Homo sapiens, UniProt P42330).
T1 sequence (P42330 1-323): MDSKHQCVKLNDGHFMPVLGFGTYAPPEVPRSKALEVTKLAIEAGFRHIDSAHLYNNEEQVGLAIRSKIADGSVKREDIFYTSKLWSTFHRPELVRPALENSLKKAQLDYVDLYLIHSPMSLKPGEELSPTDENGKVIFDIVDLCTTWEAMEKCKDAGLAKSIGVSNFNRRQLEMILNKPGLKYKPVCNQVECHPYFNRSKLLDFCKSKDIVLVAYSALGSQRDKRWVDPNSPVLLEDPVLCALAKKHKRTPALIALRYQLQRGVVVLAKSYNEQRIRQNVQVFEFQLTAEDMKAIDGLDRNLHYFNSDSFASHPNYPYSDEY
The assay can be described thus: AKR1C3 protein degradation in 22Rv1 prostate cancer cells (Western blot). Type of assay: cell-based. More on the design: 22Rv1 prostate cancer cells that express high levels of AKR1C3; host or cells: 22Rv1. The note with it: read-out: AKR1C3 DC50 (half-maximal degradation concentration); 72 hours. (In general: Immunoblotting shows a protein as a band on a membrane.)

As for `O=C(O)/C=C/c1cc(C(=O)NCc2ccc(OCc3cn(CCOCCOCC(=O)Nc4cccc5c4CN(C4CCC(=O)NC4=O)C5=O)nn3)cc2)cc(-c2ccccc2)c1` (stereo not shown) [Compound IA, (E)-3-(5-((4-((1-(2-(2-(2-((2-(2,6-dioxopiperidin-3-yl)-1-oxoisoindolin-4-yl)amino)-2-oxoethoxy)ethoxy)ethyl)-1H-1,2,3-triazol-4-yl)methoxy)benzyl)carbamoyl)-[1,1 ? biphenyl]-3-yl)acrylic acid], the DC50 amounted to 0.052 µM.

For the origin of these results see patent US20260364181A1, “AKR1C3 Targeted Heterobifunctional Small Molecule Proteolysis Targeting Chimeras” (BOARD OF REGENTS OF THE UNIVERSITY OF NEBRASKA, priority 2022, published 2026).
